According to patent publication US8513258B2, “Cinnamoyl-piperazine derivatives and their use as par-1 antagonists” (Pierre Fabre Medicament, priority 2006, dated 2013):

Molecular target: T1, PAR-1 receptor (Cricetulus griseus, UniProt A0A8C2QJ57)
T1 construct: Chinese hamster ovarian (CHO) cells constituently express PAR-1 receptor; endogenous in cells; host or cells: CHO cells
T1 sequence (A0A8C2QJ57 22-428): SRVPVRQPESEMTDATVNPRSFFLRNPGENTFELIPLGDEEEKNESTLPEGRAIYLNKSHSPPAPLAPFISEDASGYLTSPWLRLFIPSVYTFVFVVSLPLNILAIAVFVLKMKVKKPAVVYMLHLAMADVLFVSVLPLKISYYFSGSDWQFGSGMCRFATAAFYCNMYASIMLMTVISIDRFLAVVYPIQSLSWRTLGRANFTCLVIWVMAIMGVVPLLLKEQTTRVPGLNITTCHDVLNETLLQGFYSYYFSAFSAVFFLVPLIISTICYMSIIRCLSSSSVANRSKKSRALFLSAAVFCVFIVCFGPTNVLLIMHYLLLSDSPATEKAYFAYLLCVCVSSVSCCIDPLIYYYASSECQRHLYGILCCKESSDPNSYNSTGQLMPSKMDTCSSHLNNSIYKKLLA
Assay: Antagonism of SFLLR-induced calcium release in CHO cells (FLIPR, Fluo-3AM)
Assay type: cell-based, Chinese hamster
Settings: agonist SFLLR-NH2, Arunlakshana and Schild method from EC50 shifts at three antagonist concentrations; for Kb: read-out: pA2 (converted)
Description: In a variety of cell types, activation of PAR-1 receptors by the SFLLR peptide (a selective PAR-1 agonist) triggers an intracellular signal cascade leading to the release of calcium by the endoplasmic reticulum. Chinese hamster ovarian (CHO) cells constituently express PAR-1 receptor. In this cell line, the release of calcium consecutive to receptor activation by SFLLR is measured by a fluorometry technique (fluorometric imaging plate reader, or FLIPR) using a selective probe for calcium (Fluo-3AM). The emission of fluorescence is pharmacologically proportional to the efficiency of the PAR-1 agonist and to its concentration.
Culture medium: Ham's F-12 (Ham, R. G., Proc. Nat. Acad. Sci. 1965, 53: 288) supplemented with 10% fetal calf serum and […].
Fluorescent probe: Fluo-3AM (4 μM; Teflabs, Austin, Tex., USA)
Agonist: SFLLR-NH2 (Serine, phenylalanine, leucine, leucine, arginine).
Methods: CHO cells are inoculated in 96-well plates (60,000 cells per well) in the presence of 200 μl of culture medium for 24 hours. The cells are incubated with the calcium fluorescent probe for 1 hour at 37° C. The cells are then washed 10 minutes before the signal is measured. PAR-1 antagonist is then injected (0.01 μM to 10 μM). The plates are placed in the FLIPR (Molecular Devices, UK) to measure calcium fluorescence at two wavelengths (488 nm and 540 nm: Sullivan et al., Calcium Signaling Protocols 1999, 125-136). Measurements are taken for 5 min before the antagonist is added and for 10 min following its administration. Maximum fluorescence minus baseline fluorescence is measured in 4 different wells. The test is carried out in duplicate. Under these conditions, the derivatives of the present invention were identified as PAR-1 receptor antagonists (antagonism>60% of the calcium signal at 10 μM). The dose-response curves (0.01 μM to 32 μM) obtained with the SFLLR agonist allowed determination of the effective concentration inducing 50% of the maximum effect (EC50). The strengths (pA2) of some of the PAR-1 antagonists described in the present invention were calculated using the method of Arunlakshana and Schild (Brit. J. Pharmacol., 1959, 14: 48-58) from the EC50 shifts observed at three concentrations.

| Compound | pA2 | Kb [µM] |
| --- | --- | --- |
| Cc1ccc(CN2CCN(C(=O)C=Cc3ccccc3Cl)CC2)cc1 [Example 4, 3-(2-Chloro-phenyl)-1-[4-(4-methyl-benzyl)-piperazin-1-yl]-propenone] | 6.05 | – |
| O=C(C=Cc1ccccc1Br)N1CCN(Cc2ccc(F)cc2)CC1 [Example 3, 3-(2-Bromo-phenyl)-1-[4-(4-fluoro-benzyl)-piperazin-1-yl]-propenone] | 6.36 | – |
| O=C(C=Cc1c(F)cccc1F)N1CCN(Cc2ccc(F)c(F)c2)CC1 [Example 8, 1-[4-(3,4-Difluoro-benzyl)-piperazin-1-yl]-3-(2,6-difluoro-phenyl)-propenone] | 6.32 | – |
| O=C(/C=C/c1ccccc1[N+](=O)[O-])N1CCN(CC2CCCCC2)CC1 [Example 25, 1-(4-Cyclohexylmethyl-piperazin-1-yl)-3-(2-nitro-phenyl)-propenone] | – | 0.166 |
| Cc1cccc(CN2CCN(C(=O)C=Cc3c(F)cccc3F)CC2)c1 [Example 10, 3-(2,6-Difluoro-phenyl)-1-[4-(3-methyl-benzyl)-piperazin-1-yl]-propenone] | 6.46 | – |
| O=C(C=Cc1ccccc1Cl)N1CCN(Cc2ccccc2F)CC1 [Example 15, 3-(2-Chloro-phenyl)-1-[4-(2-fluoro-benzyl)-piperazin-1-yl]-propenone] | 6.39 | – |
| O=C(C=Cc1ccccc1F)N1CCN(Cc2ccc(F)cc2)CC1 [Example 2, 1-[4-(4-Fluoro-benzyl)-piperazin-1-yl]-3-(2-fluoro-phenyl)-propenone] | 6.50 | – |
| O=C(/C=C/c1ccccc1Cl)N1CCN(CC2CCCCC2)CC1 [Example 28, 3-(2-Chloro-phenyl)-1-(4-cyclohexylmethyl-piperazin-1-yl)-] | – | 0.759 |
| O=C(/C=C/c1ccccc1Cl)N1CCN(Cc2ccc(F)cc2)CC1 [Example 1, 3-(2-Chloro-phenyl)-1-[4-(4-fluoro-benzyl)-piperazin-1-yl]-propenone] | – | 0.38 |
| O=C(C=Cc1ccccc1[N+](=O)[O-])N1CCN(Cc2ccc(F)cc2)CC1 [Example 29, 1-[4-(4-Fluoro-benzyl)-piperazin-1-yl]-3-(2-nitro-phenyl)-propenone] | 6.98 | – |
